US10683273B2, “Compounds as DNA probes, methods and applications thereof” (JAWAHARLAL NEHRU CENTRE FOR ADVANCED SCIENTIFIC RESEARCH, priority 2015, dated 2020)

Experiments:
Type in all cases: binding
d(ATAT)5 = test: UV-melting (UV-Tm) of DNA duplex with probe; conditions: d(ATAT)5 with QCy-DT vs duplex alone
Method: (§1) The UV-vis absorption and emission spectra are recorded on Agilent Technologies Cary series UV-vis-NIR absorbance and Cary eclipse fluorescence spectrophotometers, respectively. Thermal denaturation (UV-melting) studies are carried out on Cary 5000 UV-vis-NIR spectrophotometer equipped with Cary temperature controller in the range of 10° C. to 90° C. with a ramp rate of 1° C./min. The variable temperature/wavelength mode is used. Absorption is monitored at 260 nm with regular 5° C. intervals. Melting temperatures (Tm) of DNA samples are calculated from the first derivatives of the absorption vs. temperature curves (thermal denaturation or melting curves) obtained by monitoring at 260 nm.
(§2) To understand the effect of QCy-DT binding to DNA on the thermal stability of DNA, temperature-dependent UV-melting studies (UV-Tm) is performed on different [QCy-DT+DNA] complexes. […] Therefore, the binding affinity, fluorescence quantum yield, and UV-Tm data validated the preferential recognition of AT-rich DNA by QCy-DT probe compared to GC-rich DNA.

(A-T)20 = test: UV-melting (UV-Tm) of DNA duplex with probe; conditions: (A-T)20 with QCy-DT vs duplex alone
Method: as §1, §2

Drew AT = test: UV-melting (UV-Tm) of DNA duplex with probe; conditions: Drew AT with QCy-DT vs duplex alone
Method: as §1, §2

(D1)mix = test: UV-melting (UV-Tm) of DNA duplex with probe; conditions: (D1)mix with QCy-DT vs duplex alone
Method: as §1, §2

RNA = test: Fluorescence response with RNA; conditions: QCy-DT 2 μM, RNA 4 μM, Tris-HCl
Method: All the chemicals, reagents, single-stranded oligos (dA20, dT20, dG20, dC20), self-complementary oligos {d(ATAT)5, (D1)mix, Drew-AT, Calf-Thymus DNA (CT-DNA), (DM1, DM2, DM3, DM4, DM5, DM6 and DM7)}, RNA, were purchased from Sigma-Aldrich. ^1H and ^13C NMR spectra were recorded on a Bruker AV-400 MHz spectrometer with chemical shifts reported as parts per million (ppm) (in DMSO-d6, tetramethylsilane as an internal standard) at 20° C. UV-vis absorption and emission spectra were measured in quartz cuvettes of 1 cm path length. High resolution mass spectra (HRMS) were obtained on Agilent Technologies 6538 UHD Accurate-Mass Q-TOF LC/MS spectrometer. All biophysical studies (UV-vis, fluorescence and Cirular dichroism) are carried out at the concentration 0-5 μM of probe, volume=500 μL, temperature=25° C. and time of incubation=2 minutes. […]
The UV-vis absorption and emission spectra are recorded on Agilent Technologies Cary series UV-vis-NIR absorbance and Cary eclipse fluorescence spectrophotometers, respectively. […] Absorption is monitored at 260 nm with regular 5° C. intervals. Melting temperatures (Tm) of DNA samples are calculated from the first derivatives of the absorption vs. temperature curves (thermal denaturation or melting curves) obtained by monitoring at 260 nm. […]

Question: With `C[n+]1c(/C=C/c2ccc(O)c(/C=C/c3sc4ccccc4[n+]3C)c2)sc2ccccc21` [QCy-DT, quinone cyanine-dithiazole] as the compound, how does the ΔTm (d(ATAT)5) read?
Answer: 3.5 °C

Question: And the ΔTm ((A-T)20)?
Answer: 6.2 °C

Question: And the ΔTm (Drew AT)?
Answer: 4.2 °C

Question: And the ΔTm ((D1)mix)?
Answer: 2.5 °C

Question: And the fluorescence response (RNA)?
Answer: very weak response
